Test results published in patent US20110178299A1, “OPTICALLY ACTIVE DIFLUOROMETHANESULFONANILIDE DERIVATIVE AND HERBICIDE” (Kumiai Chemical Industry Co., Ltd., priority 2008, published 2011).

Tests used:
Assay in all cases: Paddy pot test of herbicidal effect, water surface application of wettable powder
Format in all cases: in vivo
Conditions in all cases: applied onto water surface 3 days after sowing, examined after 30 days
Scirpus juncoides Roxb. = system: Scirpus juncoides Roxb.
Protocol: (§1) A paddy field soil was filled in a plastic pot having an area of 1/5000 are. Beginning of irrigation, fertilizer application and puddling were conducted. Then, seeds of Echinochloa oryzicola Vasing, Monochoria vaginalis Presl var. plan-taginea (Roxb.) Solms-Lau. and Scirpus juncoides Roxb. were sowed at a depth of 0.5 cm, and submerging was conducted so as to give a water depth of 4 cm. 3 days after the sowing, the wettable powder prepared as in the formulation 1 was diluted with water and dropwise added onto the water surface so that the active ingredient amount (g/10 are) added became the level shown in Table 2. Then, breeding was made at room temperature and, after 30 days, herbicidal effect was examined according to the yardstick shown in Table 1.

[1] = system: Monochoria vaginalis Presl var. plan-taginea (Roxb.) Solms-Lau.
Protocol: as §1

[2] = system: Echinochloa oryzicola Vasing
Protocol: as §1

COCc1cccc(C(O)c2nc(OC)cc(OC)n2)c1NS(=O)(=O)C(F)F (racemic) [compound 2, (RS)-2′-(4,6-dimethoxypyrimidin-2-yl)hydroxymethyl-6′-methoxymethyl-1,1-difluoromethanesulfonanilide, reference compound]
Herbicidal effect (degree of growth control) index, Scirpus juncoides (Scirpus juncoides Roxb.; dose 0.04 g ai/10 a): 2 (Herbicidal effect of 20% inclusive to 30% exclusive) | Herbicidal effect (degree of growth control) index, Scirpus juncoides (Scirpus juncoides Roxb.; dose 0.08 g ai/10 a): 8 (Herbicidal effect of 80% inclusive to 90% exclusive) | Herbicidal effect (degree of growth control) index, Scirpus juncoides (Scirpus juncoides Roxb.; dose 0.16 g ai/10 a): 9 (Herbicidal effect of 90 inclusive to 100% exclusive) | Herbicidal effect (degree of growth control) index, Scirpus juncoides (Scirpus juncoides Roxb.; dose 0.32 g ai/10 a): 10 (Herbicidal effect of 100% control) | Herbicidal effect (degree of growth control) index, Monochoria vaginalis ([1]; dose 0.04 g ai/10 a): 0 (Herbicidal effect of less than 10%) | Herbicidal effect (degree of growth control) index, Monochoria vaginalis ([1]; dose 0.08 g ai/10 a): 0 (Herbicidal effect of less than 10%) | Herbicidal effect (degree of growth control) index, Monochoria vaginalis ([1]; dose 0.16 g ai/10 a): 9 (Herbicidal effect of 90 inclusive to 100% exclusive) | Herbicidal effect (degree of growth control) index, Monochoria vaginalis ([1]; dose 0.32 g ai/10 a): 10 (Herbicidal effect of 100% control) | Herbicidal effect (degree of growth control) index, Echinochloa oryzicola ([2]; dose 0.04 g ai/10 a): 1 (Herbicidal effect of 10% inclusive to 20% exclusive) | Herbicidal effect (degree of growth control) index, Echinochloa oryzicola ([2]; dose 0.08 g ai/10 a): 3 (Herbicidal effect of 30% inclusive to 40% exclusive) | Herbicidal effect (degree of growth control) index, Echinochloa oryzicola ([2]; dose 0.16 g ai/10 a): 5 (Herbicidal effect of 50% inclusive to 60% exclusive) | Herbicidal effect (degree of growth control) index, Echinochloa oryzicola ([2]; dose 0.32 g ai/10 a): 7 (Herbicidal effect of 70% inclusive to 80% exclusive)

COCc1cccc([C@@H](O)c2nc(OC)cc(OC)n2)c1NS(=O)(=O)C(F)F [compound 1, (R)-2′-(4,6-dimethoxypyrimidin-2-yl)hydroxymethyl-6′-methoxymethyl-1,1-difluoromethanesulfonanilide]
Herbicidal effect (degree of growth control) index, Scirpus juncoides (Scirpus juncoides Roxb.; dose 0.04 g ai/10 a): 7 (Herbicidal effect of 70% inclusive to 80% exclusive) | Herbicidal effect (degree of growth control) index, Scirpus juncoides (Scirpus juncoides Roxb.; dose 0.08 g ai/10 a): 9 (Herbicidal effect of 90 inclusive to 100% exclusive) | Herbicidal effect (degree of growth control) index, Scirpus juncoides (Scirpus juncoides Roxb.; dose 0.16 g ai/10 a): 10 (Herbicidal effect of 100% control) | Herbicidal effect (degree of growth control) index, Scirpus juncoides (Scirpus juncoides Roxb.; dose 0.32 g ai/10 a): 10 (Herbicidal effect of 100% control) | Herbicidal effect (degree of growth control) index, Monochoria vaginalis ([1]; dose 0.04 g ai/10 a): 0 (Herbicidal effect of less than 10%) | Herbicidal effect (degree of growth control) index, Monochoria vaginalis ([1]; dose 0.08 g ai/10 a): 9 (Herbicidal effect of 90 inclusive to 100% exclusive) | Herbicidal effect (degree of growth control) index, Monochoria vaginalis ([1]; dose 0.16 g ai/10 a): 10 (Herbicidal effect of 100% control) | Herbicidal effect (degree of growth control) index, Monochoria vaginalis ([1]; dose 0.32 g ai/10 a): 10 (Herbicidal effect of 100% control) | Herbicidal effect (degree of growth control) index, Echinochloa oryzicola ([2]; dose 0.04 g ai/10 a): 1 (Herbicidal effect of 10% inclusive to 20% exclusive) | Herbicidal effect (degree of growth control) index, Echinochloa oryzicola ([2]; dose 0.08 g ai/10 a): 6 (Herbicidal effect of 60% inclusive to 70% exclusive) | Herbicidal effect (degree of growth control) index, Echinochloa oryzicola ([2]; dose 0.16 g ai/10 a): 9 (Herbicidal effect of 90 inclusive to 100% exclusive) | Herbicidal effect (degree of growth control) index, Echinochloa oryzicola ([2]; dose 0.32 g ai/10 a): 9 (Herbicidal effect of 90 inclusive to 100% exclusive)

COCc1cccc([C@H](O)c2nc(OC)cc(OC)n2)c1NS(=O)(=O)C(F)F [compound 3, (S)-2′-(4,6-dimethoxypyrimidin-2-yl)hydroxyl-methyl-6′-methoxymethyl-1,1-difluoromethanesulfonanilide]
Herbicidal effect (degree of growth control) index, Scirpus juncoides (Scirpus juncoides Roxb.; dose 0.32 g ai/10 a): 0 (Herbicidal effect of less than 10%) | Herbicidal effect (degree of growth control) index, Monochoria vaginalis ([1]; dose 0.32 g ai/10 a): 0 (Herbicidal effect of less than 10%) | Herbicidal effect (degree of growth control) index, Echinochloa oryzicola ([2]; dose 0.32 g ai/10 a): 0 (Herbicidal effect of less than 10%)
